pKi: −log10 of the molar value.
Target: Sigma non-opioid intracellular receptor 1 (Cavia porcellus, UniProt Q60492)
Assay: Displacement of [3H](+)-pentazocine from sigma 1 receptor in guinea pig brain membrane

Sequence of Sigma non-opioid intracellular receptor 1 (Q60492 whole entry): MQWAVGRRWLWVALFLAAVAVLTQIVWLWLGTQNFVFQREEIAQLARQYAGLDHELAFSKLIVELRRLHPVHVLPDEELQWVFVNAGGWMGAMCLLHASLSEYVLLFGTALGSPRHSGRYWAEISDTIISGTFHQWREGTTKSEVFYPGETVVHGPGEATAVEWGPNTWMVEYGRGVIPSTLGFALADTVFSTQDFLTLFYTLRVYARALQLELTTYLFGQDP

pKi	Compound
7.17	OCC[C@H]1Cc2ccccc2C2(CCN(CCCc3ccccc3)CC2)O1 [(R)-2-(1'-(3-phenylpropyl)spiro[isochroman-1,4'-piperidine]-3-yl)ethanol]
8.05	OCC[C@H]1Cc2ccccc2C2(CCN(CC3CCCCC3)CC2)O1 [(R)-2-(1'-(cyclohexylmethyl)spiro[isochroman-1,4'-piperidine]-3-yl)ethanol]
7.32	OCC[C@H]1Cc2ccccc2C2(CCN(Cc3ccccc3)CC2)O1 [(R)-2-(1'-benzylspiro[isochroman-1,4'-piperidine]-3-yl)ethanol]
8.00	OCC[C@@H]1Cc2ccccc2C2(CCN(Cc3ccccc3)CC2)O1 [(S)-2-(1'-benzylspiro[isochroman-1,4'-piperidine]-3-yl)ethanol]
